Assay results taken from US7022701B2, “Indolylalkylamine derivatives as 5-hydroxytryptamine-6 ligands” (Wyeth, priority 2001, dated 2006).
Where a name gives a salt, the structure may show the parent alone.

Each compound was assayed against T1, human cloned 5-HT6 receptors (Homo sapiens, UniProt P50406) (assay: 5-HT6 binding affinity, [3H]-LSD displacement on membranes of Hela cells expressing the receptor). Conditions: not given.
T1 construct: expressed in transfected cells; host or cells: Hela cells
Experimental: The affinity of test compounds for the serotonin 5-HT6 receptor is evaluated in the following manner. Cultured Hela cells expressing human cloned 5-HT6 receptors are harvested and centrifuged at low speed (1,000×g) for 10.0 min to remove the culture media. The harvested cells are suspended in half volume of fresh physiological phosphate buffered saline solution and recentrifuged at the same speed. This operation is repeated. The collected cells are then homogenized in ten volumes of 50 mM Tris.HCl (pH 7.4) and 0.5 mM EDTA. The homogenate is centrifuged at 40,000×g for 30.0 min and the precipitate is collected. The obtained pellet is resuspended in 10 volumes of Tris.HCl buffer and recentrifuged at the same speed. The final pellet is suspended in a small volume of Tris.HCl buffer and the tissue protein content is determined in aliquots of 10–25 μl volumes. […] The volume of the suspended cell membranes is adjusted to give a tissue protein concentration of 1.0 mg/ml of suspension. The prepared membrane suspension (10 times concentrated) is aliquoted in 1.0 ml volumes and stored at −70° C. until used in subsequent binding experiments.
Binding experiments are performed in a 96 well microtiter plate format, in a total volume of 200 μl. […] The test compounds are added in 20.0 μl volume.
The bound complex caught on the filter disk is allowed to air dry and the radioactivity is measured in a Packard TopCount® equipped with six photomultiplier detectors, after the addition of 40.0 μl Microscint®-20 scintillant to each shallow well. The unifilter plate is heat-sealed and counted in a PackardTopCount® with a tritium efficiency of 31.0%.
Binding in the presence of varying concentrations of test compound is expressed as a percentage of specific binding in the absence of test compound. The results are plotted as log % bound versus log concentration of test compound.

T1 sequence (P50406 whole entry): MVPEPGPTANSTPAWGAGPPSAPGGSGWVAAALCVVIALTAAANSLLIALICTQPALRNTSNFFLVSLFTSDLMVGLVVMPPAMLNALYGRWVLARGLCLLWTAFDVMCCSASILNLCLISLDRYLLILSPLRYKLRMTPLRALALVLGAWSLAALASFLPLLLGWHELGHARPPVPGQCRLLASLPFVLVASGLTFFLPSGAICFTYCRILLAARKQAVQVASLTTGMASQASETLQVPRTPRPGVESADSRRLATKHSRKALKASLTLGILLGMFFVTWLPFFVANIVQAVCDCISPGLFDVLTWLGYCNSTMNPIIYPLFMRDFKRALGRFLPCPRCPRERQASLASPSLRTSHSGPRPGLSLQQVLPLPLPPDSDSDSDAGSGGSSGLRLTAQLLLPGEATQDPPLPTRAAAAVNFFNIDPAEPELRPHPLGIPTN

| Compound | Ki |
| --- | --- |
| C[C@H](N)Cc1cn(S(=O)(=O)c2c(Cl)nc3sccn23)c2ccccc12 [Example 15, (S)-2-[1-(6–Chloroimidazo[2,1-b]thiazole-5-sulfonyl)-1H-indol-3-yl]-1-methylethylamine Hydrochloride] | 6 nM |
| CNCCc1cn(S(=O)(=O)c2c(Cl)nc3ccccn23)c2ccccc12 [Example 20, {2-[1-(2-chloro-imidazo[1,2-a]pyridine-3-sulfonyl)-1H-indol-3-yl]ethyl}methylamine] | 11 nM |
| Cc1ccc2c(CCN)cn(S(=O)(=O)c3c(Cl)nc4sccn34)c2c1 [Example 35, 2-[1-(6-chloro-imidazo[2,1-b][1,3]thiazole-5-sulfonyl)-6-methyl-1H-indol-3-yl]ethylamine] | 6 nM |
| NCCc1cn(S(=O)(=O)c2c(Cl)nc3sc(Cl)cn23)c2ccccc12 [Example 18, 2-[1-(2,6-dichloro-imidazo[2,1-b][1,3]thiazole-5-sulfonyl)-1H-indol-3-yl]ethylamine] | 8 nM |
| CNCCc1cn(S(=O)(=O)c2c(Cl)nc3sc(Cl)cn23)c2ccccc12 [Example 21, {2-[1-(2,6-dichloro-imidazo[2,1-b][1,3]thiazole-5-sulfonyl)-1H-indol-3-yl]ethyl)methylamine] | 12 nM |
| NCCc1cn(S(=O)(=O)c2c(Cl)nc3sccn23)c2ccc(OCc3ccccc3)cc12 [Example 33, 2-[5-benzyloxy-1-(6-chloro-imidazo[2,1-b][1,3]thiazole-5-sulfonyl)-1H-indol-3-yl]ethylamine] | 169 nM |
| NCCc1cn(S(=O)(=O)c2c(Cl)nc3sccn23)c2ccc(F)cc12 [Example 38, 2-[1-(6-chloro-imidazo[2,1-b][1,3]thiazole-5-sulfonyl)-5-fluoro-1H-indol-3-yl]ethylamine] | 9 nM |
| CN1CCN(CCc2cn(S(=O)(=O)c3c(Cl)nc4sccn34)c3ccccc23)CC1 [Example 7, 1-(6-chloro-imidazo[2,1-b][1,3]thiazole-5-sulfonyl)-3-[2-(4-methylpiperazin-1-yl)ethyl]-1H-indole] | 7 nM |
| NCCc1cn(S(=O)(=O)c2cnc3sccn23)c2ccccc12 [Example 40, 2-{1-[(imidazo[2,1-b][1,3]thiazol-5-yl)sulfonyl]-1H-indol-3-yl}ethylamine] | 1.2 nM |
| COc1ccc2c(c1)c(CCN)cn2S(=O)(=O)c1c(Cl)nc2sccn12 [Example 30, 2-[1-(6-chloro-imidazo[2,1-b][1,3]thiazole-5-sulfonyl)-5-methoxy-1H-indol-3-yl]ethylamine] | 11 nM |
| Cc1ccc2c(c1)c(CCN)cn2S(=O)(=O)c1c(Cl)nc2sccn12 [Example 34, 2-[1-(6-chloro-imidazo[2,1-b][1,3]thiazole-5-sulfonyl)-5-methyl-1H-indol-3-yl]ethylamine] | 31 nM |
| NCCc1cn(S(=O)(=O)c2c(Cl)nc3sccn23)c2ccc(O)cc12 [Example 37, 3-(2-amino-ethyl)-1-(6-chloro-imidazo[2,1-b][1,3]thiazole-5-sulfonyl)-1H-indol-5-ol] | 4 nM |
| CC(N)Cc1cn(S(=O)(=O)c2c(Cl)nc3sccn23)c2ccccc12 (stereo not shown) [Example 12, 2[1-(6–Chloroimidazo[2,1-b]thiazole-5-sulfonyl)-1H-indol-3-yl]-1-methylethylamine Hydrochloride] | 2 nM |
| COc1ccc2c(CCN)cn(S(=O)(=O)c3c(Cl)nc4sccn34)c2c1 [Example 31, 2-[1-(6-chloro-imidazo[2,1-b][1,3]thiazole-5-sulfonyl)-6-methoxy-1H-indol-3-yl]ethylamine] | 13 nM |
| C[C@@H](N)Cc1cn(S(=O)(=O)c2c(Cl)nc3sccn23)c2ccccc12 [Example 16, ®-2-[1-(6 Chloroimidazo[2,1-b]thiazole-5-sulfonyl)-1H-indol-3-yl]-1-methylethylamine Hydrochloride] | 2 nM |
| NCCc1cn(S(=O)(=O)c2c(Cl)nc3sccn23)c2ccc(Br)cc12 [Example 32, 2-[5-bromo-1-(6-chloro-imidazo[2,1-b][1,3]thiazole-5-sulfonyl)-1H-indol-3-yl]ethylamine] | 74 nM |
| CN(C)CCc1cn(S(=O)(=O)c2c(Cl)nc3sccn23)c2ccccc12 [Example 4, {2-[1-(6-chloro-imidazo[2,1-b][1,3]thiazole-5-sulfonyl)-1H-indol-3-yl]ethyl}dimethylamine] | 1 nM |
| NCCc1cn(S(=O)(=O)c2c(Cl)nc3ccccn23)c2ccccc12 [Example 17, 2-[1-(2-chloro-imidazo[1,2-a]pyridine-3-sulfonyl)-1H-indol-3-yl]ethylamine] | 14 nM |
| CN(CCc1cn(S(=O)(=O)c2c(Cl)nc3sccn23)c2ccccc12)Cc1ccccc1 [Example 9, benzyl-{2-[1-(6-chloro-imidazo[2,1-b][1,3]thiazole-5-sulfonyl)-1H-indol-3-yl]ethyl}methylamine] | 5 nM |
| O=C(O)C1CCCN1CCc1cn(S(=O)(=O)c2c(Cl)nc3sccn23)c2ccccc12 (stereo not shown) [Example 11, 1-{2-[1-(6-chloro-imidazo[2,1-b][1,3]thiazole-5-sulfonyl)-1H-indol-3-yl]ethyl}pyrrolidine-2-carboxylic acid] | 30 nM |
| NCCc1cn(S(=O)(=O)c2c(Cl)nc3sccn23)c2cc(F)ccc12 [Example 39, 2-[1-(6-chloro-imidazo[2,1-b][1,3]thiazole-5-sulfonyl)-6-fluoro-1H-indol-3-yl]ethylamine] | 5 nM |
| CNCCc1cn(S(=O)(=O)c2c(Cl)nc3sccn23)c2ccccc12 [Example 3, (2-[1-(6–Chloroimidazo[2,1-b]thiazole-5-sulfonyl)-1H-indol-3-yl]ethyl}methyl amine] | 19 nM |
| O=S(=O)(c1c(Cl)nc2sccn12)n1cc(CCNCc2ccccc2)c2ccccc21 [Example 5, benzyl-{2-[1-(6-chloro-imidazo[2,1-b][1,3]thiazole-5-sulfonyl)-1H-indol-3-yl]ethyl}amine] | 4 nM |
| Cc1cccc2c(CCN)cn(S(=O)(=O)c3c(Cl)nc4sccn34)c12 [Example 36, 2-[1-(6-chloro-imidazo[2,1-b][1,3]thiazole-5-sulfonyl)-7-methyl-1H-indol-3-yl]ethylamine] | 348 nM |
| O=S(=O)(c1c(Cl)nc2sccn12)n1cc(CCNCCc2ccccc2)c2ccccc21 [Example 10, {2-[1-(6-chloro-imidazo[2,1-b][1,3]thiazole-5-sulfonyl)-1H-indol-3-yl]ethyl}phenethylamine] | 41 nM |
| O=S(=O)(c1c(Cl)nc2sccn12)n1cc(CCN2CCCC2)c2ccccc21 [Example 6, 1-(6-chloro-imidazo[2,1-b][1,3]thiazole-5-sulfonyl)-3-(2-pyrrolidin-1-ylethyl)-1H-indole] | 5 nM |
| CN(C)CCc1cn(S(=O)(=O)c2c(Cl)nc3sc(Cl)cn23)c2ccccc12 [Example 24, {2-[1-(2,6-dichloro-imidazo[2,1-b][1,3]thiazole-5-sulfonyl)-1H-indol-3-yl]ethyl}dimethylamine] | 10 nM |

Same assay, conditions: [3H]-LSD 3.0 nM, membranes of Hela cells expressing human cloned 5-HT6 receptors, 120 min at room temperature; read-out: 5-HT6 Binding Ki

| Compound | Ki |
| --- | --- |
| CN(C)CCc1cn(S(=O)(=O)c2c(Cl)nc3ccccn23)c2ccccc12 [Example 23, {2-[1-(2-chloro-imidazo[1,2-a]pyridine-3-sulfonyl)-1H-indol-3-yl]ethyl}dimethyamine] | 10 nM |
| NCCCc1cn(S(=O)(=O)c2c(Cl)nc3sccn23)c2ccc(F)cc12 [Example 45, 3-{1-[(6–Chloroimidazo[2,1-b][1,3]thiazol-5-yl)sulfonyl]-5-fluoro-1H-indol-3-yl}propan-1-amine] | 48 nM |
| {2-[1-(2-chloro-benzo[d]imidazo[2,1-b][1,3]thiazole-3-sulfonyl)-1H-indol-3-yl]ethyl}dimethylamine [Example 25] | 37 nM |
| {2-[1-(2-chloro-benzo[d]imidazo[2,1-b][1,3]thiazole-3-sulfonyl)-1H-indol-3-yl]ethyl}methylamine [Example 22] | 51 nM |
